The source of these data is patent publication US20230406865A1, “CRYSTAL FORM OF FREE BASE OF INHIBITOR CONTAINING BICYCLIC RING DERIVATIVE AND PREPARATION METHOD AND APPLICATION OF CRYSTAL FORM” (SHANGHAI HANSOH BIOMEDICAL CO., LTD., priority 2020, published 2023).

For orientation: IC50 means the concentration that gives 50% inhibition. Broadly, the inhibition is the change of the read-out against control, counted positive when it falls. The low end stands for little suppression, the high end for strong suppression.

The data set addresses hERG (Homo sapiens, UniProt Q12809). Kind of data set: cell-based. On the procedure:
Terfenadine (Sigma-Aldrich, MKBX6318V); • HEK293-hERG cell line (human embryonic kidney cells stably expressing hERG channels), provided by Academy of Military Medical Sciences.
Human embryonic kidney cells (HEK293) stably expressing hERG channels were cultured in DMEM medium (DMEM, HyClone) in a 37° C. cell incubator containing 5% CO2. About 10% fetal bovine serum (FBS, gibco) was added to the cell culture medium.
Human embryonic kidney cells stably expressing hERG channels (HEK293-hERG) were used for the experiment. HEK293 cells were clamped with the Multi Clamp 700B manual patch clamp system to form a whole-cell voltage clamp pattern, and hERG current was induced with the corresponding voltage. […] The peak values of tail current recorded under the solvent control were taken as 100%, and the data of positive control and test samples were standardized. Curve fitting and IC50 calculation were done in the software GraphPad Prism 5.00 using the standard Hill equation.

Sequence of hERG (Q12809 whole entry): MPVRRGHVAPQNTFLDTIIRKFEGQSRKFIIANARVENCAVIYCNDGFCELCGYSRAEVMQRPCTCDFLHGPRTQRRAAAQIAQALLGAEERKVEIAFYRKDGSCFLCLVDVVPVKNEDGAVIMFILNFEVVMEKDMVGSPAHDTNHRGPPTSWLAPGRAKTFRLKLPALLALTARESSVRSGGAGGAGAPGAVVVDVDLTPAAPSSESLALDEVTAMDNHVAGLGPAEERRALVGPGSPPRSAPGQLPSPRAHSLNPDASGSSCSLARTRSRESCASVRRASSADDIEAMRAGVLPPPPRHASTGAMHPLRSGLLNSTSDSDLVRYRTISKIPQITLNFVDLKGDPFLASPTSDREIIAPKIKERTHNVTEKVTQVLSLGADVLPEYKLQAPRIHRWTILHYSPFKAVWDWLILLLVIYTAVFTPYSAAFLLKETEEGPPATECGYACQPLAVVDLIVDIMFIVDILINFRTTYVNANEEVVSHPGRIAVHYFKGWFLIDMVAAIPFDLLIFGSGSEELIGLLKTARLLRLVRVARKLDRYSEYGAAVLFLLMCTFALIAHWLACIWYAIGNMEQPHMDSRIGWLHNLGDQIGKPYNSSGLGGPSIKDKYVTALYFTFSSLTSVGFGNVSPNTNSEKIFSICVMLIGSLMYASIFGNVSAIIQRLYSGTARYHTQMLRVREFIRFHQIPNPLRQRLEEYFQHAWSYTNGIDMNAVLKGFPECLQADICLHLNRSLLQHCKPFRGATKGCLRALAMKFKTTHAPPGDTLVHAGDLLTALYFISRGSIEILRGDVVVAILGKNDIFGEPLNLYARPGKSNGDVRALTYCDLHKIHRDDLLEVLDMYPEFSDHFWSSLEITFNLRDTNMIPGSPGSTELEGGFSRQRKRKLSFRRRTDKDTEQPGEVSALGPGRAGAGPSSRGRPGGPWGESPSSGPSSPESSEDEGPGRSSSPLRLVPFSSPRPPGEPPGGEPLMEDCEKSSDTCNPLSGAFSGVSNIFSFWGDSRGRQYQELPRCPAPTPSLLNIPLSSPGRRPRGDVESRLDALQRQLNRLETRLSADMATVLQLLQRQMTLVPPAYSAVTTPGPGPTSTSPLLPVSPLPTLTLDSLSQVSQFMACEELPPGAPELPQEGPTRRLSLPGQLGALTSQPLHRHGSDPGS

In the case of `C#C[C@@](C)(O)COc1cc(-c2ccc(N3CC4CC(C3)N4Cc3ccc(OC)nc3)nc2)c2c(C#N)cnn2c1` [Embodiment 63, 6-(((R)-2-hydroxy-2-methylbut-3-yn-1-yl)oxy)-4-(6-(6-((6-methoxypyridin-3-yl)methyl)-3,6-diazabicyclo[3.1.1]heptan-3-yl)pyridin-3-yl)pyrazolo[1,5-a]pyridine-3-carbonitrile], the IC50 came out at 16.9 µM. Besides, under “human”, the inhibition at 0.1 μmol/L is 3.24%, the inhibition at 1 μmol/L is 8.39%, the inhibition at 3 μmol/L is 12.7% and the inhibition at 10 μmol/L was 35.4%. The inhibition at 30 μmol/L (human) came to 58.8%.
